Laboratory results as given in patent publication US20250099491A1, “PREVENTION OR TREATMENT OF CARDIOVASCULAR DISEASES WITH HIGH PENETRATION PRODRUGS OF ASPIRIN AND OTHER NSAIDS” (Techfields Inc., priority 2022, published 2025).

Test system: patients with ischemic strokes
Assay: Phase 2 clinical study of spray in patients with ischemic strokes
Format: in vivo, human
Details: for RICA (near-wall): Maximal IMT of right internal carotid artery / LCCA (far-wall): Maximal IMT of left common carotid artery / LCCA (near-wall): Maximal IMT of left common carotid artery / LICA (far-wall): Maximal IMT of left internal carotid artery / LICA (near-wall): Maximal IMT of left internal carotid artery / RCCA (far-wall): Maximal IMT of right common carotid artery / RCCA (near-wall): Maximal IMT of right common carotid artery / RICA (far-wall): Maximal IMT of right internal carotid artery: ultrasonography
Description: Each patient enrolled in Group A was administered the investigational drug in a double-blind manner for 16 weeks starting between 3 and 60 days after the onset of stroke symptoms (Day 1 of the study). The patients and/or their caregivers were instructed how to apply the investigational drug accurately so that patients or their caregivers would administer 20 sprays/dose of either the investigational drug or placebo twice daily (approximately every 12 hours) for a total daily dose of 280 mg of investigational drug. The 20 sprays of investigational drug were administered as follows: 4 sprays around the neck, 2 sprays to the left shoulder, 2 sprays to the right shoulder, 6 sprays to the chest, 3 sprays to the left leg, and 3 sprays to the right leg. Each spray was sprayed on a different area of the skin to reach maximum absorption. The patient would wait for at least 5 minutes to dress after the last spray so that the skin became completely dry.
Patients were asked to return to the study site at Weeks 4, 8, 12, and 16 for efficacy and safety assessments. After the Week 16 assessments had been performed, patients would start the open-label period of the study the next day and receive active treatment in an open-label manner through the end of the study (EOS) at Week 32. That is, patients who were receiving active treatment would continue to receive active treatment, and patients who were receiving placebo would switch to active treatment for the remaining 16 weeks of the study. Patients would receive only 1 dose of investigational drug on the Week 16 visit day. Patients would return to the study site at Week 24 and Week 32 (EOS) for efficacy and safety assessments. An Early Termination visit would occur if the patient was discontinued from the study prematurely. Patients would have a follow-up visit approximately 14 days after the Early Termination visit or the Week 32 (EOS) visit.
The spray bottle deposits […] of spray solution and 7 mg 2-(diethylamino)ethyl acetoxybenzoate free base per spray on the skin. Subjects were to apply each spray to a different skin area around the neck, chest, legs and arms based on the randomized dose level assigned.
The treatment was administered twice daily (approximately every 12 hours) starting on Day 1 of the study through the Week 16 visit. Each spray was sprayed on a different area of the skin to reach maximum absorption.
Group A administered the 20 sprays of investigational drug as follows: 4 sprays around the neck, 2 sprays to the left shoulder, 2 sprays to the right shoulder, 6 sprays to the chest, 3 sprays to the left leg, and 3 sprays to the right leg twice daily for a total of 40 sprays (280 mg)/day. Each spray was sprayed on a different area of the skin to reach maximum absorption.
(§1) Group B administered the investigational drug as follows: 2 sprays to the front of the neck, 1 spray to the left side of the neck, 1 spray to the right side of the neck, 6 sprays to the chest close to the neck twice daily for a total of 20 sprays (140 mg)/day. Each spray was sprayed on a different area of the skin to reach maximum absorption.
as §1, with “C” for “B”, “1 spray” for “2 sprays”, “2” for “6”, “chest” for “chest close to the neck”, “10” for “20”, “(70 mg/day).” for “(140 mg)/day.”
The primary efficacy endpoint is the mRS score at Week 16 dichotomized as ‘success’ (0 to 2) or failure (>2) for all randomized patients at Week 16.
The mRS score was assessed at screening; Day 1 (baseline); Weeks 4, 8, 12, 16, 24, and 32; Early Termination Visit (if applicable) and Follow-Up Visit.
The mRS score measures the patient's functional level of activity and is dichotomized as a favorable outcome (score=0-2) versus unfavorable (score […]). […]

[1] = 10 Sprays (70 mg/dose bid), Week 24
[2] = 10 Sprays (70 mg/dose bid), Week 32
[3] = 10 Sprays (70 mg/dose bid), baseline
[4] = 20 Sprays (140 mg/dose bid), Baseline
[5] = 20 Sprays (140 mg/dose bid), Week 4
[6] = 20 Sprays (140 mg/dose bid), Week 8
[7] = 20 Sprays (140 mg/dose bid), Week 16
[8] = 20 Sprays (140 mg/dose bid), Week 24
[9] = 20 Sprays (140 mg/dose bid), Week 32
[10] = 20 Sprays (140 mg/dose bid), baseline
[11] = during the study, all three doses

CCN(CC)CCOC(=O)c1ccccc1OC(C)=O.Cl [Compound-1]
RICA (near-wall): Maximal IMT of right internal carotid artery (10 Sprays (70 mg/dose bid), Week 16): 0.9 ± 0.5 mm
Modified Rankin Scale Score (mRS) [1]: 1.5 ± 0.5
National Institute of Health Stroke Scale [1]: 1.6 ± 0.6
Modified Rankin Scale Score (mRS) [2]: 1.4 ± 0.5
National Institute of Health Stroke Scale [2]: 1.3 ± 0.4
LCCA (far-wall): Maximal IMT of left common carotid artery [2]: 1.7 ± 0.8 mm
LCCA (near-wall): Maximal IMT of left common carotid artery [2]: 1.2 ± 0.6 mm
LICA (far-wall): Maximal IMT of left internal carotid artery [2]: 0.6 ± 0.3 mm
LICA (near-wall): Maximal IMT of left internal carotid artery [2]: 0.7 ± 0.4 mm
RCCA (far-wall): Maximal IMT of right common carotid artery [2]: 1.3 ± 0.8 mm
RCCA (near-wall): Maximal IMT of right common carotid artery [2]: 1.3 ± 0.7 mm
RICA (far-wall): Maximal IMT of right internal carotid artery [2]: 0.8 ± 0.2 mm
RICA (near-wall): Maximal IMT of right internal carotid artery [2]: 0.7 ± 0.4 mm
Modified Rankin Scale Score (mRS) [3]: 3.5 ± 0.5
National Institute of Health Stroke Scale [3]: 5.9 ± 2.0
LCCA (far-wall): Maximal IMT of left common carotid artery [4]: 6.5 ± 2.0 mm
LCCA (near-wall): Maximal IMT of left common carotid artery [4]: 7.6 ± 1.6 mm
LICA (far-wall): Maximal IMT of left internal carotid artery [4]: 5.7 ± 1.7 mm
LICA (near-wall): Maximal IMT of left internal carotid artery [4]: 5.6 ± 1.7 mm
RCCA (far-wall): Maximal IMT of right common carotid artery [4]: 8.8 ± 2.3 mm
RCCA (near-wall): Maximal IMT of right common carotid artery [4]: 7.5 ± 1.8 mm
RICA (far-wall): Maximal IMT of right internal carotid artery [4]: 4.7 ± 1.6 mm
RICA (near-wall): Maximal IMT of right internal carotid artery [4]: 4.9 ± 1.3 mm
Modified Rankin Scale Score (mRS) [5]: 2.1 ± 0.5
National Institute of Health Stroke Scale [5]: 4.6 ± 1.6
Modified Rankin Scale Score (mRS) [6]: 1.8 ± 0.4
National Institute of Health Stroke Scale [6]: 3.0 ± 1.1
Modified Rankin Scale Score (mRS) [7]: 1.4 ± 0.5
National Institute of Health Stroke Scale [7]: 1.9 ± 0.9
LCCA (far-wall): Maximal IMT of left common carotid artery [7]: 1.2 ± 0.6 mm
LCCA (near-wall): Maximal IMT of left common carotid artery [7]: 1.3 ± 0.5 mm
LICA (far-wall): Maximal IMT of left internal carotid artery [7]: 0.6 ± 0.4 mm
LICA (near-wall): Maximal IMT of left internal carotid artery [7]: 0.7 ± 0.3 mm
RCCA (far-wall): Maximal IMT of right common carotid artery [7]: 1.4 ± 0.3 mm
RCCA (near-wall): Maximal IMT of right common carotid artery [7]: 1.2 ± 0.5 mm
RICA (far-wall): Maximal IMT of right internal carotid artery [7]: 0.6 ± 0.2 mm
RICA (near-wall): Maximal IMT of right internal carotid artery [7]: 0.8 ± 0.3 mm
Modified Rankin Scale Score (mRS) [8]: 1.3 ± 0.5
National Institute of Health Stroke Scale [8]: 1.4 ± 0.6
Modified Rankin Scale Score (mRS) [9]: 1.3 ± 0.4
National Institute of Health Stroke Scale [9]: 1.1 ± 0.3
LCCA (far-wall): Maximal IMT of left common carotid artery [9]: 1.1 ± 0.7 mm
LCCA (near-wall): Maximal IMT of left common carotid artery [9]: 0.8 ± 0.5 mm
LICA (far-wall): Maximal IMT of left internal carotid artery [9]: 0.5 ± 0.3 mm
LICA (near-wall): Maximal IMT of left internal carotid artery [9]: 0.6 ± 0.3 mm
RCCA (far-wall): Maximal IMT of right common carotid artery [9]: 1.0 ± 0.5 mm
RCCA (near-wall): Maximal IMT of right common carotid artery [9]: 0.9 ± 0.4 mm
RICA (far-wall): Maximal IMT of right internal carotid artery [9]: 0.5 ± 0.3 mm
RICA (near-wall): Maximal IMT of right internal carotid artery [9]: 0.6 ± 0.5 mm
Modified Rankin Scale Score (mRS) [10]: 3.6 ± 0.5
National Institute of Health Stroke Scale [10]: 6.1 ± 2.3
Mean and median blood pressures [11]: remained unchanged
upper GI tract ulcer complication (bleeding episode, perforation, or gastric outlet obstruction) [11]: No notable
skin irritation, total incidences (mild, all three doses): 6
improvement of atherosclerosis (neck arteries by ultrasonography, spray vs placebo): can reverse atherosclerosis
functional recovery post strokes (results of BI, words) (spray vs placebo): can improve the functional recovery post strokes
functional recovery post strokes (results of NIHSS, words) (spray vs placebo): can improve the functional recovery post strokes
functional recovery post strokes (results of mRS, words) (spray vs placebo): can improve the functional recovery post strokes
Gastrointestinal disorders, incidences in the study (very mild, none appeared to be drug related, all three doses): 15
